Here are results for 5 compounds from US20190054096A1, “METHODS FOR A[…] VIRULENCE” (priority 2015, published 2019).

“Also recorded” adds a separate entry of the source.

Assay [1] has as its system P. berghei sporozoites. Put plainly: Survival of P. berghei sporozoite-infected mice. The format is in vivo, C57BL/6 mice. The following applies: 15-day period. The source says: FIG. 6 exemplifies that treatment with AMPK agonists protects P. berghei infected mice from severe malaria, leading to improved survival, C57BL/6 mice were infected and treated as in FIG. 5 (≥10 mice/group; p<0.05).
Example 4. Improved survival of parasite-infected mice treated with AMPK agonists. To determine the effect of the AMPK activators, salicylate and metformin, on animal survival over a 15-day period following parasite infection, C57BL/6 mice were infected by i.d. injection of 5×10^3 P. berghei sporozoites. Salicylate (300 mg/Kg, Sigma No. 71945) was administered by i.p. injection once daily, starting one hour before infection. Metformin (500 mg/Kg. Sigma No D150959) was provided in the drinking water for one week prior to, and during, infection.

Assay [2] concerns P. falciparum parasite line, 3D7. Put plainly: microbe, parasite or virus in culture. The following applies: P. falciparum 3D7 blood-stages, 0.1% initial parasitemia. The format is cell-based, Plasmodium falciparum. The procedure:
FIG. 9 exemplifies a dose-dependent effect of CR-mimetic compounds on human P. falciparum blood-stages. Synchronized cultures were set at 0.1% initial parasitemia, treated with the various compounds and analysed by flow cytometry after SYBR Green labelling of parasite DNA at 72 hours or 96 hours post-treatment. Data (mean±sem) was […] to the untreated control on each experiment (3-5 independent experiments/compound). IC50 values were determined by GraphPad. Prism using non-linear regression variable slope (normalized) analysis. […] Data for rsv and SRT1720 was collected at 72 hours post-treatment, and 96 hours for all the other compounds.
Example 7. Dose-dependent effect of CR-mimetic compounds on human P. falciparum blood-stages. Synchronized cultures of the P. falciparum parasite line, 3D7, were set at 0.1% initial parasitemia, treated with the various compounds and analysed by flow cytometry after SYBR Green labelling of parasite DNA at 72 hours or 96 hours post-treatment. […] Data for rsv and SRT1720 were collected at 72 hours post-treatment, and 96 hours for all the other compounds.
P. falciparum 3D7 was continuously cultured in human erythrocytes at 4% hematocrit in RPMI 1640 supplemented with 0.5% Albumax II (Invitrogen), […] Hypoxanthine (Sigma) and 20 μg/ml Gentamicin (Invitrogen). Cultures were maintained at 37° C. in an atmosphere of 5% O2, 5% CO2, 90% N2, and synchronized by consecutive treatments of 5% Sorbitol (Sigma), for dose-response analysis, serial dilutions of the compounds were added to synchronized ring-stages of P. falciparum in 96-well plates. Initial parasitemia was set to 0.1% and hematocrit 2%. Parasite replication and reinvasion were assessed at the indicated time by flow cytometry based on fluorescent labelling of P. falciparum DNA. The SYBR Green I (Invitrogen) stained samples were analysed on a CyFlow® SL Blue or Accuri® BD flow cytometer and the data evaluated using FlowJo software (TreeStar) to determine the percentage of infected erythrocytes. IC50 values were calculated using GraphPad Prism.

Assay [3] has as its system P. berghei sporozoites. Put plainly: Relative parasitemia after P. berghei sporozoite (liver-stage) infection of mice. The class given is in vivo, C57BL/6 mice. The following applies: 72 h.p.i., vs control.
Experimental: Relative parasitemia in C57BL/6 mice that were infected with freshly dissected P. berghei sporozoites, and treated with salicylate or metformin, or maintained under control conditions. Salicylate (300 mg/Kg) was administered by i.p. injection once daily, starting one hour before infection, Metformin (500 mg/Kg) was provided in the drinking water for one week prior and during infection, (≥10 mice/group; each dot represents, one mouse). ***p<0.001; ****p<0.0001.
Parasitemia was determined by flow cytometry analysis (BD FACSCAlibur200 or BD LSRFortessa®) of one drop of tail blood in PBS from C57BL/6 mice that were infected with GFP-expressing P. berghei parasites, and maintained on either AL or CR diets. Analysis on FlowJo® followed. The number of acquired total events ranged from 100-200 thousand. […] The GFP-expressing parasites were detected in the FITC channel. False GFP positive ceils (erythrocyte's auto-fluorescence) were eliminated by plotting FITC against PE.
Relative parasitemia in C57BL/6 mice at 72 hours post infection (h.p.i) with freshly dissected P. berghei sporozoites, was determined by flow cytometry analysis (as described in Example 1) for mice treated with either salicylate or metformin, or maintained under control, untreated conditions. […]
The subject of assay [4] is AMPKα (pAMPKα T172). Put plainly: Western blot of AMPK phosphorylation in liver homogenates. The format is in vivo, C57BL/6 mice. As to conditions: non-infected mice, 1 hr after injection, vs vehicle. The source says:
Western blot analysis of liver homogenates from non-infected mice in AL and DR diets (top panel), and non-infected mice 1 hr after injection of salicylate or vehicle (bottom panel). Lane numbers 1-3 correlate to liver homogenates from individual mice. Representative blot probing with anti-phospho AMPKα (pAMPKα^T172), and -actin antibodies.
Example 2. […] Western blot analysis of AMPK phosphorylation in liver homogenates from non-infected C57BL/6 mice in AL end DR diets, and non-infected mice one hour after injection of salicylate or vehicle. Livers were homogenized in ice-cold lysis buffer (50 mM HEPES, 150 mM NaCl, 10 mM NaF, 1 mM Sodium pyrophosphate, 0.5 mM EDTA, 1 mM DTT, 1% triton, 1 mM Na3VO4, 250 mM Sucrose, protease inhibitor cocktail and phosphatase inhibitors). Total protein content in each homogenate was measured by Bradford Assay (Bio-Rad), according to manufacturer's instructions. 50 μg of total liver lysates were resolved on either 8% SDS-PAGE or Any kD™ Mini-PROTEAN® precast gels (Bio-Rad) and transferred to a nitrocellulose membrane using standard wet transfer with 1× Tris-Glycine buffer containing 20% methanol for 2 hr at 100 V constant or were transferred using iBlot® gel Transfer Stacks (ThermoFisher). […]
pAMPK was detected using rabbit anti-phospho-AMPKα T172 (mAb 40H9.1:1000, Cell Signaling Technology) (incubation for overnight at 4° C). […]
On the technique in general: In western blotting, separated proteins are transferred to a membrane and probed.

Assay [5] relates to P. berghei wild-type (wt) and complemented Δkin (Δkin+kin) parasites. Put plainly: In vitro schizont maturation, merozoites per segmented schizont (wild-type and complemented Δkin). The format is cell-based, Plasmodium berghei. The following applies: 625 μM, 24 h in vitro, medium with 25% fetal bovine serum. As for the experimental part:
(§1) FIG. 7A exemplifies microscopy analysis and quantification of the number of merozoites per segmented schizont in P. berghei wild-type (wt), Δkin and complemented Δkin (Δkin+kin) parasites. Blood-stage parasites were allowed to mature for 24 hours into schizonts in vitro with medium supplemented with AL and CR sera. KIN is the AMPK homologue in Plasmodium parasites. ****p<0.0001.
(§2) Example 5. The AMPK homologue, KIN, regulates the CR effect in Plasmodium parasites. P. berghei parasite wild-type respond to CR by decreasing the number of daughter merozoites on each cycle. […] The CR effect phenotype can be rescued by reintroducing the kin gene into Δkin parasite line.
(§3) P. berghei blood-stage parasites can be maintained in vitro for only one developmental cycle (20-24 h), in which ring forms develop into mature schizonts, without bursting. Infected blood was obtained from in vivo infections containing mainly ring-stage forms at 1-3% parasitemia. Parasites were cultured in RPMI1640 medium containing 25 mM HEPES, 0.05 mg/ml Gentamicin or Penicillin/Streptomycin (all Gibco/Invitrogen), in 96-well plates. […] Parasite development and the number of merozoites per schizont were then assessed using light microscopy and image (http://rsbweb.nih.gov/ij/). Only mature schizont (segmenters) with clearly separated merozoites were scored.

Assay [6] has as its system P. berghei Δkin parasites. Put plainly: In vitro schizont maturation, merozoites per segmented schizont (Δkin). The class given is cell-based, Plasmodium berghei. The following applies: 24 h in vitro, medium with 25% fetal bovine serum. The procedure:
as §1, §2, §3

Where [7] appears, read: 300 mg/Kg i.p. once daily, starting one hour before infection.

`CN(C)C(=N)N=C(N)N` [metformin]: in assay [1] (500 mg/Kg in drinking water for one week prior to and during infection), the Survival rate entry is given as “significant increases in the survival rates”. The compound further registered an IC50 in assay [2] (Plasmodium falciparum, 96 hours post-treatment) of 868 µM. In addition, the “Relative parasitemia (liver-stage infection)” value in assay [3] (500 mg/Kg in drinking water for one week prior and during infection) was “reduction of P. berghei liver-stage infection”.
Take `N#Cc1c(O)c2c(-c3ccc(-c4ccccc4O)cc3)csc2[nH]c1=O` [A769662]: the half-maximal inhibitory concentration (IC50) in assay [2] (96 hours post-treatment) was 71 µM.
Consider `O=C(O)c1ccccc1O` [salicylate], for which the “AMPK phosphorylation (pAMPKα T172) in liver” value in assay [4] is listed as “activation of AMPK”. For the same compound, in assay [1] (setting [7]), the Survival rate entry is given as “significant increases in the survival rates”. In addition, the results for the “Parasite replication (merozoites per schizont)” value in assay [5] and in assay [6] were “reduced parasite replication; also recorded: reduce replication” and “fail to respond”, respectively. In assay [2] (96 hours post-treatment), this compound registered an IC50 of 1300 µM. Besides, the “Relative parasitemia (liver-stage infection)” value in assay [3] (setting [7]) is given as “reduction of P. berghei liver-stage infection”.
On to `Oc1ccc(C=Cc2cc(O)cc(O)c2)cc1` [resveratrol], for which 32 µM corresponded to half-maximal inhibition in assay [2] (Plasmodium falciparum, 72 hours post-treatment) (IC50).
For `O=C(Nc1ccccc1-c1cn2c(CN3CCNCC3)csc2n1)c1cnc2ccccc2n1` [SRT1720], in assay [2] (72 hours post-treatment), the IC50 was determined as 0.786 µM.

As a reminder, the IC50 is the concentration that inhibits the measured activity by half. Read a high IC50 as lower potency.
